Experimental data reported in patent publication US8449898B2 (priority 2007, dated 2013).

Columns and labels:
[1] = tested on: Phytophthora infestans (the causal agent of tomato late blight); assay: whole plant or invertebrate; type: in vivo; details: for TLB Obsd (disease control rating): Table B
[2] = tested on: Pseudoperonospora cubensis (the causal agent of cucumber downy mildew); assay: Test B: cucumber downy mildew, preventive spray on cucumber seedlings; type: in vivo; details: for CDM Obsd (disease control rating): Table B
[3] = Table D, component (b) alone at 2 ppm
[4] = Table D, component (b) alone at 10 ppm
[5] = Table D, component (b) alone at 40 ppm
[6] = Table D, component (b) alone at 200 ppm
[7] = Table D, component (b) alone at 500 ppm
[8] = component (b) alone 2 ppm (Compound 1 0 ppm)
[9] = component (b) alone 10 ppm (Compound 1 0 ppm)
[10] = component (b) alone 40 ppm (Compound 1 0 ppm)

## O=C(Cn1nc(C(F)(F)F)cc1C(F)(F)F)N1CCC(c2nc(C3=NOC(c4ccccc4)C3)cs2)CC1 (stereo not shown)
other
  melting point: 130 to 133 °C

## Cc1cc(C(F)(F)F)nn1CC(=O)N1CCC(c2nc(C3=NOC(C)(c4ccccc4)C3)cs2)CC1 (stereo not shown)
other
  melting point: 97 to 100 °C

## Cc1cc(C(F)(F)F)nn1CC(=O)N1CCC(c2nc(C3=NOC4c5ccccc5CCC34)cs2)CC1 (stereo not shown)
other
  melting point: 162 to 165 °C

## COc1ccc(C2CC(c3csc(C4CCN(C(=O)Cn5nc(C(F)(F)F)cc5C)CC4)n3)=NO2)cc1 (stereo not shown)
other
  melting point: 119 to 124 °C

## [Cu+2].[OH-].[OH-] [copper hydroxide]
[1]; [3]
  TLB Obsd: 32%
[1]; [4]
  TLB Obsd: 48%
[1]; [5]
  TLB Obsd: 40%
[1]; [6]
  TLB Obsd: 70%
[1]; [7]
  TLB Obsd: 91%
[1]; component (b) alone, 2 ppm
  TLB Obsd (observed effect, tomato late blight): 22
[1]; component (b) alone, 10 ppm
  TLB Obsd (observed effect, tomato late blight): 36
[1]; component (b) alone, 40 ppm
  TLB Obsd (observed effect, tomato late blight): 50
[1]; component (b) alone, 200 ppm
  TLB Obsd (observed effect, tomato late blight): 71
[1]; component (b) alone, 500 ppm
  TLB Obsd (observed effect, tomato late blight): 77
[2]; [3]
  CDM Obsd: 53%
[2]; [4]
  CDM Obsd: 63%
[2]; [5]
  CDM Obsd: 85%
[2]; [6]
  CDM Obsd: 85%
[2]; [7]
  CDM Obsd: 88%
[2]; [8]
  CDM Obsd: 47%
[2]; [9]
  CDM Obsd: 47%
[2]; [10]
  CDM Obsd: 47%
[2]; component (b) alone 200 ppm (Compound 1 0 ppm)
  CDM Obsd: 85%
[2]; component (b) alone 500 ppm (Compound 1 0 ppm)
  CDM Obsd: 93%
[2]; component (b) alone, 2 ppm
  CDM Obsd (observed effect, cucumber downy mildew): 0
[2]; component (b) alone, 10 ppm
  CDM Obsd (observed effect, cucumber downy mildew): 0
[2]; component (b) alone, 40 ppm
  CDM Obsd (observed effect, cucumber downy mildew): 0
[2]; component (b) alone, 200 ppm
  CDM Obsd (observed effect, cucumber downy mildew): 29
[2]; component (b) alone, 500 ppm
  CDM Obsd (observed effect, cucumber downy mildew): 37

## CCc1cc(C(F)(F)F)nn1CC(=O)N1CCC(c2nc(C3=NOC(c4ccccc4)C3)cs2)CC1 (stereo not shown)
other
  melting point: 128 to 133 °C

## O=C(NCc1ncc(C(F)(F)F)cc1Cl)c1c(Cl)cccc1Cl [fluopicolide]
[1]; component (b) alone 0.08 ppm
  TLB Obsd (disease control rating): 26%
[1]; component (b) alone 0.4 ppm
  TLB Obsd (disease control rating): 9%
[1]; component (b) alone 2 ppm
  TLB Obsd (disease control rating): 59%
[1]; component (b) alone 10 ppm
  TLB Obsd (disease control rating): 100%
[1]; component (b) alone 40 ppm
  TLB Obsd (disease control rating): 100%
[1]; component (b) alone, 0.08 ppm
  TLB Obsd: 7%
[1]; component (b) alone, 0.4 ppm
  TLB Obsd: 0%
[1]; component (b) alone, 2 ppm
  TLB Obsd: 90%
[1]; component (b) alone, 10 ppm
  TLB Obsd: 100%
[1]; component (b) alone, 40 ppm
  TLB Obsd: 100%
[2]; component (b) alone 0.08 ppm
  CDM Obsd (disease control rating): 47%
[2]; component (b) alone 0.4 ppm
  CDM Obsd (disease control rating): 47%
[2]; component (b) alone 2 ppm
  CDM Obsd (disease control rating): 94%
[2]; component (b) alone 10 ppm
  CDM Obsd (disease control rating): 100%
[2]; component (b) alone 40 ppm
  CDM Obsd (disease control rating): 100%
[2]; component (b) alone 0.08 ppm (Compound 1 0 ppm)
  CDM Obsd: 33%
[2]; component (b) alone 0.4 ppm (Compound 1 0 ppm)
  CDM Obsd: 79%
[2]; [8]
  CDM Obsd: 96%
[2]; [9]
  CDM Obsd: 100%
[2]; [10]
  CDM Obsd: 100%
[2]; component (b) alone, 0.08 ppm
  CDM Obsd: 0%
[2]; component (b) alone, 0.4 ppm
  CDM Obsd: 0%
[2]; component (b) alone, 2 ppm
  CDM Obsd: 83%
[2]; component (b) alone, 10 ppm
  CDM Obsd: 100%
[2]; component (b) alone, 40 ppm
  CDM Obsd: 100%
